Experiments:
[1] = tested on: suspected/confirmed staphylococcal or other Gram-positive infection; assay: Clinical effectiveness; type: in vivo, hospitalized adults (patients); settings: for Length of hospitalization: median [min–max]
[2] = Vancomycin treatment safety outcomes; type: in vivo, hospitalized adults (patients); settings: for Neutropenia: absolute neutrophil counts < 1000/μL
[3] = Vancomycin clinical pharmacokinetics and serum concentrations; settings: for AUC per TDM adjusted dose / AUC per initial dose: NONMEM; for AUC per TDM adjusted dose / t1/2 / AUC per initial dose / Initial vancomycin serum concentration, Peak / Initial vancomycin serum concentration, Trough-2 / Initial vancomycin serum concentration, Trough-1: median [IQR]; for Cl / Ke / Vd / t1/2: at treatment initiation; for Cl / Ke / Vd / Post-dose adjustment trough concentration: mean ± SD, SD; for AUC per initial dose: pre-TDM dose; for Initial vancomycin serum concentration, Peak / Initial vancomycin serum concentration, Trough-2 / Initial vancomycin serum concentration, Trough-1: pre-TDM; for Initial vancomycin serum concentration, Peak: 1–2 h post fourth dose infusion; for Initial vancomycin serum concentration, Trough-2: 30 min before the fifth dose; for Initial vancomycin serum concentration, Trough-1: 30 min before the fourth dose
[4] = peak–trough-monitoring group (n = 30)
[5] = trough-only-monitoring group (n = 35)

## CN[C@H](CC(C)C)C(=O)N[C@H]1C(=O)N[C@@H](CC(N)=O)C(=O)N[C@H]2C(=O)N[C@H]3C(=O)N[C@H](C(=O)N[C@H](C(=O)O)c4cc(O)cc(O)c4-c4cc3ccc4O)[C@H](O)c3ccc(c(Cl)c3)Oc3cc2cc(c3O[C@@H]2O[C@H](CO)[C@@H](O)[C@H](O)[C@H]2O[C@H]2C[C@](C)(N)[C@H](O)[C@H](C)O2)Oc2ccc(cc2Cl)[C@H]1O [vancomycin]
[1]; [4]
  Therapeutic failure: 7 (23.3) n (%)
  Length of hospitalization: 15.5 [4–68.9] days
[1]; [5]
  Therapeutic failure: 18 (51.4) n (%)
  Length of hospitalization: 20 [6–117] days
[1]; trough-only-monitoring group (n = 35), clinical and/or microbiologic cure, intention-to-treat
  Therapeutic cure: 17 (48.6) n (%)
[2]; [4]
  All-cause mortality: 2 (6.7) n (%)
  Neutropenia: 1 (3.3) n (%)
[2]; [5]
  All-cause mortality: 3 (8.6) n (%)
  Neutropenia: 3 (8.6) n (%)
[3]; [4]
  AUC per TDM adjusted dose: 223 [168.82] mg*h/L
  Cl: 4.24 ± 2.20 L/h
  Ke: 0.089 ± 0.051 h⁻¹
  Vd: 51.14 ± 9.96 L
  t1/2: 7.23 [9.75] h
  Post-dose adjustment trough concentration: 15.6 ± 3.49 mg/L
  AUC per initial dose: 228 [273.01] mg*h/L
  Initial vancomycin serum concentration, Peak: 27.9 [17.8] mg/L
  Initial vancomycin serum concentration, Trough-2: 8.9 [15.1] mg/L
  Initial vancomycin serum concentration, Trough-1: 8.4 [12.9] mg/L
[3]; [5]
  AUC per TDM adjusted dose: 270 [156.02] mg*h/L
  Cl: 4.15 ± 2.22 L/h
  Ke: 0.094 ± 0.05 h⁻¹
  Vd: 48.5 ± 10.7 L
  t1/2: 8.01 [11.12] h
  AUC per initial dose: 227 [195.6] mg*h/L
  Initial vancomycin serum concentration, Peak: 25 [10] mg/L
  Initial vancomycin serum concentration, Trough-2: 10.6 [10.5] mg/L
  Initial vancomycin serum concentration, Trough-1: 9 [8.3] mg/L
  Post-dose adjustment trough concentration: 16.8 ± 3.09 mg/L

From paper PMC6746691 (European Journal of Drug Metabolism and Pharmacokinetics, 2019)
